This is an account of results in patent publication US20120071505A1, “SUBSTITUTED PYRIDINE DERIVATIVES, PHARMACEUTICAL COMPOSITIONS, AND METHODS OF USE TO TREAT OXIDATIVE STRESS” (HIGH POINT PHARMACEUTICALS, LLC, priority 2009, published 2012).

The structures appear in SMILES notation.

The first assay relates to HMOX1 mRNA expression. The assay can be described thus: Oxidative stress gene expression (mRNA) protocol: heme oxygenase mRNA induction in NHLF cells (Quantigene Plex 2.0, Luminex). Type of assay: cell-based, human. Conditions: 2.5 μM compound, 6 h, normalized to GAPDH, above DMSO treated cells. The procedure: Oxidative Stress Gene Expression (mRNA) Protocol
Cell Culture. Normal Human Fibroblast (NHLF), were obtained from Lonza. Cultures of cells were maintained in Fibroblast Growth Medium (FGM-2) medium supplemented with 2% fetal bovine serum (FBS), Fibroblast Growth Factor (hFGF-B) 0.5 ml, Insulin 0.5 ml, gentamicin/amphotericin-B 0.5 mL at 37° C. in a humidified atmosphere of 5% CO2. Primary isolates of cell are cultured in T-225 flasks (Corning) as per instructions from the vendor. Cells are grown to 80% confluence before harvesting. Cells are harvested by first washing with 5 mL of Hepes buffered saline solution (Lonza). The buffered salt solution is aspirated and then 5 mL of a solution of Trypsin-EDTA is added to detach the cells from the culture flask. To this mixture 5 mL of Trypsin neutralization solution (Lonza) is added Trypsin. The mixture is centrifuged at 500×g for 10 minutes at 4° C. The cell pellet is resuspended to a final concentration of one million cells per milliliter in fetal bovine serum containing 6% DMSO. The cells are then dispensed into cyrovials and frozen in liquid nitrogen for storage.
Heme oxygenase mRNA expression. Secondary growth of NHLF cells are used for all assays. Cell are thawed and then placed into culture in T225 flasks. The cells are grown to 80% confluency and harvested by washing once with HEPES buffered saline solution and then trypsinized. Equal numbers (7×10^3 cells per well) of NHLF cells were plated in 96 well tissue culture plates (Corning). Cells were incubated overnight in FGM-2 medium prior to exposure to compound. Cells were treated with either DMSO or a compound of the Examples above for 6 h. Preparation of cell lysates was carried out according to instructions using the Quantigene Reagent system 2.0 protocol (Panomics). Heme oxygenase mRNA induction was detected from cell lysate using the Quantigene Plex 2.0 Assay Kit (Panomics) on the Luminex platform (BIO-RAD). Expression of GAPDH mRNA was used as the internal control for the Quantigen Plex 2.0 Assay. The data in Table 1 represents the fold change of heme oxygenase mRNA expression, normalized to control values, above DMSO treated cells.
With `CC1OCCC1S(=O)(=O)c1c(-c2ccc(C(F)(F)F)cc2)cnc2ccccc12` (centres unmarked) [Example 27, 3-(4-trifluoromethyl-phenyl)-4-(2-methyl-tetrahydro-furan-3-sulfonyl)-quinoline], the “Fold Change of HMOX1 mRNA expression (at 2.5 μM)” value is given as 27.5 (at 2.5 μM) fold.

The assay is the same for the next values; noted with them: 3 μM compound, 6 h, normalized to GAPDH, above DMSO treated cells.
Consider `CCCS(=O)(=O)c1cnc2ccc(OC)cc2c1NC1CCCCC1` [Example 30, cyclohexyl-[6-methoxy-3-(propane-1-sulfonyl)-quinolin-4-yl]-amine], for which the “Fold Change of HMOX1 mRNA expression (at 3 μM)” value (shortened to “Fold Change … (at 3 μM)”) is 4.0 (at 3 μM) fold.

Take `COc1cccc2c(S(=O)(=O)C3CCOC3C)c(C(=O)OC3CCCCC3)cnc12` (centres unmarked) [Example 8, 8-Methoxy-4-(2-methyl-tetrahydro-furan-3-sulfonyl)-quinoline-3-carboxylic acid cyclohexyl ester]: the “Fold Change … (at 3 μM)” value is recorded as 4.5 (at 3 μM) fold.

For the compound `CCCS(=O)(=O)c1cnc2c(OC(F)(F)F)cccc2c1NC1CCCC1` [Example 31, cyclopentyl-[3-(propane-1-sulfonyl)-8-trifluoromethoxy-quinolin-4-yl]-amine], the “Fold Change … (at 3 μM)” value is given as 4.0 (at 3 μM) fold.

Consider `COc1cccc2c(S(=O)(=O)C3CCOC3C)c(C(=O)OCC3CCCO3)cnc12` (centres unmarked) [Example 11, 8-Methoxy-4-(2-methyl-tetrahydro-furan-3-sulfonyl)-quinoline-3-carboxylic acid tetrahydro-furan-2-ylmethyl ester], for which the “Fold Change … (at 3 μM)” value is reported as 2.7 (at 3 μM) fold.

In the case of `CCOC(=O)c1cnc2c(OC)cccc2c1S(=O)(=O)C1CCCCC1` [Example 3, 4-Cyclohexanesulfonyl-8-methoxy-quinoline-3-carboxylic acid ethyl ester], the “Fold Change … (at 3 μM)” value is listed as 6.7 (at 3 μM) fold.

Regarding `CCCS(=O)(=O)c1cnc2ccc(OC)cc2c1NC1CCCC1` [Example 29, cyclopentyl-[6-methoxy-3-(propane-1-sulfonyl)-quinolin-4-yl]amine], the “Fold Change … (at 3 μM)” value was 4.0 (at 3 μM) fold.

Take `COc1cccc2c(S(=O)(=O)C3CCOC3C)c(C(=O)OCC3CCCCC3)cnc12` (centres unmarked) [Example 9, 8-Methoxy-4-(2-methyl-tetrahydro-furan-3-sulfonyl)-quinoline-3-carboxylic acid cyclohexylmethyl ester]: the “Fold Change … (at 3 μM)” value is listed as 2 (at 3 μM) fold.

The same assay, now with this note: 10 μM compound, 6 h, normalized to GAPDH, above DMSO treated cells.
With `COCCCOC(=O)c1cnccc1S(=O)(=O)C1CCOC1C` (centres unmarked) [Example 21, 4-(2-Methyl-tetrahydro-furan-3-sulfonyl)-nicotinic acid 3-methoxy-propyl ester], the “Fold Change of HMOX1 mRNA expression (at 10 μM)” value (shortened to “Fold Change … (at 10 μM)”) was 6.0 (at 10 μM) fold.

For `COCCCOC(=O)c1c[n+]([O-])ccc1S(=O)(=O)C1CCOC1C` (centres unmarked) [Example 22, 4-(2-Methyl-tetrahydro-furan-3-sulfonyl)-1-oxy-nicotinic acid 3-methoxy-propyl ester], the “Fold Change … (at 10 μM)” value was 5.6 (at 10 μM) fold.

Take `CCOC(=O)c1cnc2c(OC)cccc2c1S(=O)(=O)Cc1ccoc1` [Example 5, 4-(Furan-3-ylmethanesulfonyl)-8-methoxy-quinoline-3-carboxylic acid ethyl ester]: the “Fold Change … (at 10 μM)” value is on record as 2.0 (at 10 μM) fold.

Take `CCCC(=O)c1cnc2c(OC)cccc2c1S(=O)(=O)C1CCOC1C` (centres unmarked) [Example 7, 1-[8-methoxy-4-(2-methyl-tetrahydro-furan-3-sulfonyl)-quinolin-3-yl]-butan-1-one]: the “Fold Change … (at 10 μM)” value is 2.8 (at 10 μM) fold.

Staying with this assay, now noted: Homo sapiens, 3.75 μM compound, 6 h, normalized to GAPDH, above DMSO treated cells, read-out: Fold Change of HMOX1 mRNA expression at 3.75 μM.
On to `CCCCCOC(=O)c1cnc2c(OC)cccc2c1S(=O)(=O)c1ccoc1C` [Example 18, 8-Methoxy-4-(2-methyl-furan-3-sulfonyl)-quinoline-3-carboxylic acid pentyl ester], for which the fold induction at 3.75 µM worked out at 10.2.

As for `CC1OCCC1S(=O)(=O)c1c(C(=O)OCC2CCCO2)cnc2ccccc12` (centres unmarked) [Example 17, 4-(2-Methyl-tetrahydro-furan-3-sulfonyl)-quinoline-3-carboxylic acid tetrahydro-furan-2-ylmethyl ester], the fold induction at 3.75 µM is 7.8.

As to `COc1ccc(-c2cnc3ccccc3c2S(=O)(=O)C2CCOC2C)cc1` (centres unmarked) [Example 28, 3-(4-methoxy-phenyl)-4-(2-methyl-tetrahydro-furan-3-sulfonyl)-quinoline], the fold induction at 3.75 µM was found to be 12.7.

On to `CCOC(=O)c1cnc2c(OC)cccc2c1S(=O)(=O)C1CCOC1C` (centres unmarked) [Example 2, 8-Methoxy-4-(2-methyl-tetrahydro-furan-3-sulfonyl)-quinoline-3-carboxylic acid ethyl ester], for which the fold induction at 3.75 µM is 48.6.

As for `CCCS(=O)(=O)c1ccncc1C(=O)OCCCOC` [Example 23, 4-(Propane-1-sulfonyl)-nicotinic acid 3-methoxy-propyl ester], the fold induction at 3.75 µM was 4.2.

Take `CCCS(=O)(=O)c1cnc2c(OC(F)(F)F)cccc2c1NC1CCCCC1` [Example 32, cyclohexyl-[3-(propane-1-sulfonyl)-8-trifluoromethoxy-quinolin-4-yl]-amine]: the fold induction at 3.75 µM stood at 9.8.

Take `COCC#Cc1cnc2ccccc2c1S(=O)(=O)C1CCOC1C` (centres unmarked) [Example 25, 3-(3-methoxy-prop-1-ynyl)-4-(2-methyl-tetrahydro-furan-3-sulfonyl)-quinoline]: the fold induction at 3.75 µM stood at 13.

For `CCOC(=O)c1cnc2c(OC)cccc2c1S(=O)(=O)c1ccoc1C` [Example 4, 8-Methoxy-4-(2-methyl-furan-3-sulfonyl)-quinoline-3-carboxylic acid ethyl ester], the fold induction at 3.75 µM turned out to be 5.8.

Turning to `COCCCOC(=O)c1cnc2c(OC)cccc2c1S(=O)(=O)c1ccoc1C` [Example 12, 8-Methoxy-4-(2-methyl-furan-3-sulfonyl)-quinoline-3-carboxylic acid 3-methoxy-propyl ester], the fold induction at 3.75 µM is 15.3.

As to `COc1cccc2c(S(=O)(=O)c3ccoc3C)c(C(=O)OCC3CCCC3)cnc12` [Example 19, 8-Methoxy-4-(2-methyl-furan-3-sulfonyl)-quinoline-3-carboxylic acid cyclopentylmethyl ester], the fold induction at 3.75 µM turned out to be 12.6.

For `COCCCOC(=O)c1cnc2c(OC)cccc2c1S(=O)(=O)Cc1ccoc1` [Example 13, 4-(Furan-3-ylmethanesulfonyl)-8-methoxy-quinoline-3-carboxylic acid 3-methoxy-propyl ester], the fold induction at 3.75 µM was determined as 17.2.

Consider `COCCCOC(=O)c1cnc2ccccc2c1S(=O)(=O)C1CCOC1C` (centres unmarked) [Example 14, 4-(2-Methyl-tetrahydro-furan-3-sulfonyl)-quinoline-3-carboxylic acid 3-methoxy-propyl ester], for which the fold induction at 3.75 µM is 52.4.

For the compound `CCOC(=O)c1cnc2c(OC)cccc2c1S(C)(=O)=O` [Example 1, 4-methanesulfonyl-8-methoxy-quinoline-3-carboxylic acid ethyl ester], the fold induction at 3.75 µM turned out to be 3.4.

On to `COc1cccc2c(S(=O)(=O)c3ccoc3C)c(C(=O)OCC3CCCO3)cnc12` (centres unmarked) [Example 15, 8-Methoxy-4-(2-methyl-furan-3-sulfonyl)-quinoline-3-carboxylic acid tetrahydro-furan-2-ylmethyl ester], for which the fold induction at 3.75 µM is 4.4.

With `CC1OCCC1Sc1cnc2ccccc2c1S(=O)(=O)C1CCOC1C` (centres unmarked) [Example 20, 4-(2-methyl-tetrahydro-furan-3-sulfonyl)-3-(2-methyl-tetrahydro-furan-3-ylsulfanyl)-quinoline], the fold induction at 3.75 µM is 25.9.

On to `COc1cccc2c(S(=O)(=O)Cc3ccoc3)c(C(=O)OCC3CCCO3)cnc12` (centres unmarked) [Example 16, 4-(Furan-3-ylmethanesulfonyl)-8-methoxy-quinoline-3-carboxylic acid tetrahydro-furan-2-ylmethyl ester], for which the fold induction at 3.75 µM was found to be 2.3.

`COCCCOC(=O)c1cnc2c(OC)cccc2c1S(=O)(=O)C1CCOC1C` (centres unmarked) [Example 10, 8-Methoxy-4-(2-methyl-tetrahydro-furan-3-sulfonyl)-quinoline-3-carboxylic acid 3-methoxy-propyl ester]: the fold induction at 3.75 µM amounted to 28.5.

As to `CCOC(=O)/C=C/c1cnc2ccccc2c1S(=O)(=O)C1CCOC1C` (centres unmarked) [Example 26, (E)-3-[4-(2-methyl-tetrahydro-furan-3-sulfonyl)-quinolin-3-yl]acrylic acid ethyl ester], the fold induction at 3.75 µM came to 13.2.

Take `COCCCOC(=O)c1cnccc1S(=O)(=O)CC1CCCCC1` [Example 24, 4-Cyclohexylmethanesulfonyl-nicotinic acid 3-methoxy-propyl ester]: the fold induction at 3.75 µM was 5.3.

For the compound `CCOC(=O)c1cnc2ccccc2c1S(=O)(=O)C1CCOC1C` (centres unmarked) [Example 6, 4-(2-Methyl-tetrahydro-furan-3-sulfonyl)-quinoline-3-carboxylic acid ethyl ester], the fold induction at 3.75 µM stood at 64.7.
